We go through 23 compounds from patent US8815919B2, “Oxadiazole derivatives” (Merck Serono SA, priority 2009, dated 2014).

Molecules are shown by their SMILES. Where a name gives a salt, the structure may show the parent alone. Read-outs that look alike come from different tables or passages of the source.

Test [1] addresses T1, S1P1 (Homo sapiens, UniProt P21453). The test can be described thus: Receptor binding assay, [33P]sphingosine 1-phosphate competition, S1P1 membranes, WGA SPA beads. Put shortly:
(§1)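 Competition of [33P]S1P ([…]) on CHO cell membranes with WGA SPA beads in 50 mM HEPES pH 7.5, 5 mM MgCl2, 100 mM NaCl, 0.4% fatty acid-free BSA; 60 min at RT. Triplicates normalised to total binding and nonspecific binding (1000-fold excess unlabeled S1P).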
Target sequence in this assay (P21453 whole entry, species assumed): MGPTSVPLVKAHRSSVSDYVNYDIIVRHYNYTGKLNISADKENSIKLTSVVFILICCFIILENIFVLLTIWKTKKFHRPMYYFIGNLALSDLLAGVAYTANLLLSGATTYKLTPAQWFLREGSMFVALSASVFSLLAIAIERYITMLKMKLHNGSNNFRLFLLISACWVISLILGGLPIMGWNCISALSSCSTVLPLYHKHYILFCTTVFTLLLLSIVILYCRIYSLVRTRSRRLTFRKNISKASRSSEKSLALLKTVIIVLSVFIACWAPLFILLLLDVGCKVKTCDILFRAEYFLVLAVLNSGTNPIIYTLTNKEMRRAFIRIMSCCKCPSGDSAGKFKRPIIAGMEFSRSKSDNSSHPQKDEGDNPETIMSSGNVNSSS

The next test concerns the target S1P3 (Homo sapiens, UniProt Q99500). Put plainly: Receptor binding assay, [33P]sphingosine 1-phosphate competition, S1P3 membranes, WGA SPA beads. Put shortly:
as §1

In test [2] the target is T1, S1P1. The test can be described thus: S1P1 internalization assay in S1P1-U2OS cells (S1P1-EGFP), cell imaging. Format: cell-based. Also noted: host or cells: U2OS (human bone osteosarcoma epithelial cells), CMV promoter, geneticin selection. Particulars: 1 hour incubation. Put shortly: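 U2OS cells stably expressing human S1P1-EGFP, plated overnight in 1% FCS medium, then serum-starved 2 h in 0.1% fatty-acid-free BSA before 1 h compound exposure at 37 °C. After PFA fixation and Hoechst staining, internalization imaged as EGFP spot count per nucleus.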
Target sequence in this assay (P21453 whole entry): as the sequence (P21453 whole entry, species assumed) above

The mark [3] stands for this setting: 384 well-plate, read-out: S1P1 binding Ki (M) (384 well-plate).
Where [4] appears, read: 384 well-plate, read-out: S1P3 binding Ki (M) (384 well-plate).
The mark [5] stands for this setting: 96 well-plate, read-out: S1P1 binding Ki (M) (96 well-plate).
Where [6] appears, read: 96 well-plate, read-out: S1P3 binding Ki (M) (96 well-plate).

S1P3, sequence (Q99500 whole entry, species assumed): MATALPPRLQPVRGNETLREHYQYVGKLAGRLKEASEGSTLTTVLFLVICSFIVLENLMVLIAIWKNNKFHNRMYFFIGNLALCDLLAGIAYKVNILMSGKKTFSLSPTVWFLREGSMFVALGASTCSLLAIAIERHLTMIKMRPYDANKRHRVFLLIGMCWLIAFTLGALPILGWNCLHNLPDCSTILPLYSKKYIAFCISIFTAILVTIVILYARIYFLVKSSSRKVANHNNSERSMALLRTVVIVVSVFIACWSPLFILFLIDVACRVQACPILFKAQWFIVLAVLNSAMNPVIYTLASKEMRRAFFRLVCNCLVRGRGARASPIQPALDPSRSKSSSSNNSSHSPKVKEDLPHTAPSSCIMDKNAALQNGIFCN

A word on the Ki: it is a dissociation constant, usually derived from enzyme kinetics or from competition with a known ligand. By EC50 is commonly meant the midpoint of the concentration-response curve. Low values mean an effect from little substance, high ones a need for much substance. On to `COCc1cc(-c2nc(-c3cc(F)c(CN(C)CC(=O)O)c(F)c3)no2)ccc1-c1ccccc1C` [Example 151, 2-((2,6-difluoro-4-(5-(2-(methoxymethyl)-2′-methylbiphenyl-4-yl)-1,2,4-oxadiazol-3-yl)benzyl)(methyl)amino)acetic acid, hydrochloride salt], for which the Ki came to 3.53e-09 M at S1P1 [1] (setting [3]) and 3.9e-07 M at S1P3 (setting [4]). The EC50 on S1P1 [2] was 21.6 nM.
Consider `COCc1cc(-c2nc(-c3ccc(CNCC(=O)O)cc3)no2)ccc1-c1ccccc1F` [Example 61, N-(4-{5-[2′-fluoro-2-(methoxymethyl)biphenyl-4-yl]-1,2,4-oxadiazol-3-yl}benzyl)glycine, hydrochloride salt], for which the inhibition constant (Ki) at S1P1 [1] (setting [5]) came to 2.26e-10 M; at S1P3 (setting [6]), 1.91e-07 M. Besides, the EC50 at S1P1 [2] worked out at 3.36 nM.
Take `Cc1ccccc1-c1ccc(-c2nc(-c3cc(F)cc(CN(C)CC(=O)O)c3)no2)cc1C` [Example 133, N-{3-[5-(2,2′-dimethylbiphenyl-4-yl)-1,2,4-oxadiazol-3-yl]-5-fluorobenzyl}-N-methylglycine, hydrochloride salt]: the Ki on S1P1 [1] (setting [3]) was found to be 2.81e-09 M; at S1P3 (setting [4]) it was 4.72e-07 M. On S1P1 [2], it took 42.2 nM to reach a half-maximal effect (EC50).
Regarding `Cc1ccccc1-c1ccc(-c2nc(-c3ccc(CNCCC(=O)O)cc3)no2)cc1C(F)(F)F` [Example 84], the Ki on S1P1 [1] (setting [5]) was found to be 1.43e-10 M; at S1P1 [1] (setting [3]), 3.77e-10 M; on S1P3 (setting [6]), 1.56e-07 M; on S1P3 (setting [4]) it was 1.73e-07 M. The compound further came in with an EC50 on S1P1 [2] of 1.55 nM.
Turning to `CCN(CCC(=O)O)Cc1cccc(-c2noc(-c3ccc(-c4ccccc4C)c(COC)c3)n2)c1` [Example 63, N-ethyl-N-(3-{5-[2-(methoxymethyl)-2′-methylbiphenyl-4-yl]-1,2,4-oxadiazol-3-yl}benzyl)-beta-alanine, hydrochloride salt], the values for the Ki on S1P1 [1] (setting [5]), on S1P3 (setting [6]) and at S1P3 (setting [4]) were 1.61e-10 M, 3.98e-08 M and 1.25e-07 M, respectively. The EC50 on S1P1 [2] was found to be 3.38 nM.
For the compound `CC1CCCCN1c1ccc(-c2nc(-c3cccc(COCC(=O)O)c3)no2)cc1C(F)(F)F` (stereo not shown) [Example 38, [(3-{5-[4-(2-methylpiperidin-1-yl)-3-(trifluoromethyl)phenyl]-1,2,4-oxadiazol-3-yl}benzyl)oxy]acetic acid, hydrochloride salt], the inhibition constant (Ki) on S1P1 [1] (setting [5]) is 6.22e-10 M; on S1P3 (setting [6]), 6.74e-07 M. Moreover, the midpoint of the response on S1P1 [2], the EC50, lay at 15.4 nM.
In the case of `Cc1ccccc1-c1ccc(-c2nc(-c3ccc(CN(C)CC(=O)O)c(F)c3)no2)cc1C` [Example 131, N-{4-[5-(2,2′-dimethylbiphenyl-4-yl)-1,2,4-oxadiazol-3-yl]-2-fluorobenzyl}-N-methylglycine, hydrochloride salt], the Ki on S1P1 [1] (setting [3]) was found to be 1.68e-09 M; on S1P3 (setting [4]), 1.98e-06 M. At S1P1 [2], this compound registered a 50% effective concentration (EC50) of 16.2 nM.
For the compound `Cc1cc(CNCC(=O)O)ccc1-c1noc(-c2ccc(-c3ccccc3C)c(C(F)(F)F)c2)n1` [Example 107, 2-(3-methyl-4-(5-(2′-methyl-2-(trifluoromethyl)biphenyl-4-yl)-1,2,4-oxadiazol-3-yl)benzylamino)acetic acid], the values for the inhibition constant (Ki) at S1P1 [1] (setting [3]) and on S1P3 (setting [4]) were 4.79e-10 M and 2.12e-07 M, respectively. At S1P1 [2], this compound displayed an EC50 of 2.84 nM.
In the case of `COCc1cc(-c2nc(-c3ccc(CN(C)CCC(=O)O)c(F)c3)no2)ccc1-c1ccccc1C` [Example 73, N-(2-fluoro-4-{5-[2-(methoxymethyl)-2′-methylbiphenyl-4-yl]-1,2,4-oxadiazol-3-yl}benzyl)-N-methyl-beta-alanine, hydrochloride salt], the Ki turned out to be 1.07e-10 M at S1P1 [1] (setting [5]) and 4.95e-08 M on S1P3 (setting [6]). The compound also registered an EC50 on S1P1 [2] of 1.27 nM.
Taken in the same sequence, the figures for `COCc1cc(-c2nc(-c3cc(Cl)cc(CN(C)CC(=O)O)c3)no2)ccc1-c1ccccc1C` [Example 93, N-(3-chloro-5-{5-[2-(methoxymethyl)-2′-methylbiphenyl-4-yl]-1,2,4-oxadiazol-3-yl}benzyl)-N-methylglycine, hydrochloride salt] were 3.96e-10 M, 9.4e-08 M and 26.5 nM.
As to `COC(C)c1cc(-c2nc(-c3ccc(CN(C)CC(=O)O)cc3)no2)ccc1-c1ccccc1C` (stereo not shown) [Example 140, N-(4-{5-[2-(1-methoxyethyl)-2′-methylbiphenyl-4-yl]-1,2,4-oxadiazol-3-yl}benzyl)-N-methylglycine, hydrochloride salt], the inhibition constant (Ki) is 1.89e-10 M at S1P1 [1] (setting [5]), 9.81e-10 M on S1P1 [1] (setting [3]), 1.64e-07 M at S1P3 (setting [6]) and 3.89e-07 M at S1P3 (setting [4]). The compound also had an EC50 on S1P1 [2] of 3.75 nM.
Consider `COCc1cc(-c2nc(-c3ccc(CNCC(=O)O)cc3)no2)ccc1-c1ccccc1C` [Example 60, N-(4-{5-[2-(methoxymethyl)-2′-methylbiphenyl-4-yl]-1,2,4-oxadiazol-3-yl}benzyl)glycine, hydrochloride salt], for which the inhibition constant (Ki) at S1P1 [1] (setting [5]) came to 3.09e-10 M; at S1P3 (setting [6]), 1.93e-07 M. The EC50 on S1P1 [2] was found to be 1.78 nM.
Turning to `COCc1cc(-c2nc(-c3ccc(CN(C)CC(=O)O)c(C)c3)no2)ccc1-c1ccccc1C` [Example 125, 2-((4-(5-(2-(methoxymethyl)-2′-methylbiphenyl-4-yl)-1,2,4-oxadiazol-3-yl)-2-methylbenzyl)(methyl)amino)acetic acid], the Ki on S1P1 [1] (setting [3]) amounted to 2.31e-09 M; on S1P3 (setting [4]) it was 1.92e-06 M. At S1P1 [2], this compound had a concentration giving a half-maximal response (EC50) of 7.65 nM.
As to `CCOc1cc(-c2nc(-c3cccc(CN(C)CC(=O)O)c3)no2)ccc1-c1ccccc1C` [Example 30, N-{3-[5-(2-ethoxy-2′-methylbiphenyl-4-yl)-1,2,4-oxadiazol-3-yl]benzyl}-N-methylglycine, hydrochloride salt], the figures for the Ki at S1P1 [1] (setting [5]) and on S1P3 (setting [6]) were 2.01e-10 M and 3e-08 M, respectively. On S1P1 [2], the EC50 turned out to be 8.92 nM.
Taken in the same sequence, the figures for `COCc1cc(-c2nc(-c3cc(F)cc(CN(C)CC(=O)O)c3)no2)ccc1-c1ccccc1` [Example 76] were 1.81e-10 M, 1.09e-08 M and 5.36 nM.
Take `Cc1ccccc1-c1ccc(-c2nc(-c3cccc(COCC(=O)O)c3)no2)cc1C(F)(F)F` [Example 48, [(3-{5-[2′-methyl-2-(trifluoromethyl)biphenyl-4-yl]-1,2,4-oxadiazol-3-yl}benzyl)oxy]acetic acid]: the inhibition constant Ki is 9.79e-10 M at S1P1 [1] (setting [5]), 1.97e-09 M at S1P1 [1] (setting [3]), 6.03e-07 M on S1P3 (setting [6]) and 1.08e-06 M at S1P3 (setting [4]). The compound further gave an EC50 on S1P1 [2] of 7.12 nM.
For the compound `CCCN(CC(=O)O)Cc1cccc(-c2noc(-c3ccc(-c4ccccc4C)c(COC)c3)n2)c1` [Example 77, N-(3-{5-[2-(methoxymethyl)-2′-methylbiphenyl-4-yl]-1,2,4-oxadiazol-3-yl}benzyl)-N-propylglycine, hydrochloride salt], the Ki amounted to 1.58e-09 M at S1P1 [1] (setting [5]), 9.83e-10 M on S1P1 [1] (setting [3]) and 6.05e-07 M at S1P3 (setting [6]). For the same compound, at S1P1 [2], the midpoint of the response, the EC50, lay at 52.6 nM.
As to `COCc1cc(-c2nc(-c3ccc(CN(C)CC(=O)O)cc3)no2)ccc1-c1cccc(F)c1C` [Example 90, N-(4-{5-[3′-fluoro-2-(methoxymethyl)-2′-methylbiphenyl-4-yl]-1,2,4-oxadiazol-3-yl}benzyl)-N-methylglycine, hydrochloride salt], the inhibition constant Ki at S1P1 [1] (setting [5]) was 2.78e-10 M; at S1P1 [1] (setting [3]), 8.65e-10 M; at S1P3 (setting [6]), 5.45e-07 M; at S1P3 (setting [4]) it was 8.49e-07 M. On S1P1 [2], this compound gave an EC50 of 4.46 nM.
As to `COCc1cc(-c2nc(-c3cccc(CN(C)CC(=O)O)c3)no2)ccc1-c1cccc(F)c1C` [Example 35, N-(3-{5-[3′-fluoro-2-(methoxymethyl)-2′-methylbiphenyl-4-yl]-1,2,4-oxadiazol-3-yl}benzyl)-N-methylglycine, hydrochloride salt], the values for the Ki on S1P1 [1] (setting [5]) and on S1P3 (setting [6]) were 1.98e-10 M and 9.4e-08 M, respectively. Also, the response at S1P1 [2] was half-maximal at 5.88 nM (EC50).
Turning to `COCc1cc(-c2nc(-c3cccc(CN(C)CC(=O)O)c3)no2)ccc1-c1cc(F)ccc1Cl` [Example 65, N-(3-{5-[2′-chloro-5′-fluoro-2-(methoxymethyl)biphenyl-4-yl]-1,2,4-oxadiazol-3-yl}benzyl)-N-methylglycine, hydrochloride salt], the Ki on S1P1 [1] (setting [5]) was found to be 5.31e-10 M; on S1P3 (setting [6]), 2.31e-07 M; on S1P3 (setting [4]) it was 3.68e-07 M. The same compound had a 50% effective concentration (EC50) at S1P1 [2] of 21.8 nM.
For the compound `COCc1cc(-c2nc(-c3ccc(CNCC(=O)O)c(F)c3)no2)ccc1-c1ccccc1C` [Example 83, N-(2-fluoro-4-{5-[2-(methoxymethyl)-2′-methylbiphenyl-4-yl]-1,2,4-oxadiazol-3-yl}benzyl)glycine, hydrochloride salt], the Ki was 7.39e-11 M at S1P1 [1] (setting [5]), 1.8e-10 M at S1P1 [1] (setting [3]), 1.01e-07 M at S1P3 (setting [6]) and 2.75e-07 M on S1P3 (setting [4]). This compound also gave an EC50 at S1P1 [2] of 1.2 nM.
For `COCc1cc(-c2nc(-c3cccc(CN(CCC(=O)O)C(C)C)c3)no2)ccc1-c1ccccc1C` [Example 108, N-isopropyl-N-(3-{5-[2-(methoxymethyl)-2′-methylbiphenyl-4-yl]-1,2,4-oxadiazol-3-yl}benzyl)-beta-alanine, hydrochloride salt], the Ki at S1P1 [1] (setting [3]) was determined as 5.06e-10 M; on S1P3 (setting [4]), 1.1e-06 M. The same compound displayed an EC50 on S1P1 [2] of 14 nM.
Taken in the same sequence, the figures for `COCc1cc(-c2nc(-c3ccc(CN(C)CC(=O)O)c(F)c3)no2)ccc1-c1cccc(F)c1Cl` [Example 121, N-(4-{5-[2′-chloro-3′-fluoro-2-(methoxymethyl)biphenyl-4-yl]-1,2,4-oxadiazol-3-yl}-2-fluorobenzyl)-N-methylglycine, hydrochloride salt] were 1.54e-09 M, 5.26e-07 M and 6.56 nM.
